Literature values, collected in patent US20170281607A1, “PHARMACEUTICAL COMPOSITIONS AND METHODS FOR THE TREATMENT OF DIABETES” (University of Limerick, priority 2016, published 2017).

Details: in vivo

COc1ccc2c(c1)[nH]c1c(C)nccc12 [harmine, 7-Methoxy-1-methyl-9H-pyrido[3,4-b]indole]
half-life: 1 to 3 h
